Experimental findings from patent publication US8361802B2, “Fluorescent ozone sensor” (University of Pittsburgh—Of the Commonwealth System of …, priority 2009, dated 2013) are described below.

The nature of data set [1]: Ozone detection method, fluorescence turn-on of sensor in aqueous buffer / cell culture media. The procedure:
In order to develop a fluorescent method amenable to both biological and atmospheric detection, pH 7 buffer ([PO4^3−]=5 mM) is chosen to perform the conversion of sensor 4, such as homoallyl ether, to fluorescent compound 7. A solution of sensor 4 in 5:95 MeOH/pH 7 buffer at 24° C. is exposed to ozone, incubated at 37° C. for 1 hour to facilitate β-elimination, and formation of fluorescent compound 7 is observed (signal-to-background (S/B)=Sample B (28)/Sample A (0.35)=80) (FIG. 2a). For an ozone detection method in the presence of cells, the ozonolysis reaction is performed in a mixture of pH 7 buffer and RPMI-1640 cell culture media (3:1).
Ozone detection method. Solutions of compound 4 ([4]final=12.5 μM) in 5:95 MeOH/pH 7 buffer ([PO4^3−]=5 mM) solution (4.0 mL) were prepared, and the samples were exposed to ozone at 24° C. followed by 1 hour incubation at 37° C. before fluorescence measurement (except for the ambient air experiments). The concentration of ozone was 5 μM for these studies. Fluorescence spectra were recorded in a 1×1-cm disposable cuvette on a Jobin Yvon FluoroMax-3 spectrometer under the control of a Windows-based PC running FluorEssence software. The samples were excited at 497 nm and the emission intensities were collected at 523 nm. All spectra were corrected for emission intensity using the manufacturer supplied photomultiplier curves.
Ozone: Solution A (5.0 μL, [compound 4 or compound 8]final=12.5 μM) was added to a mixture of MeOH/pH 7 buffer ([PO4^3−]=5 mM) (5:95) (4.0 mL), and the samples were exposed to ozone (˜5 μM) at 24° C. followed by 1 hour incubation at 37° C. before fluorescence measurement.

A short description of data set [2]: Ozone detection in indoor air on adsorbent paper strips. The following applies: 500 nmol on adsorbent paper, photocopy room, eight hours. Here is the method: One embodiment of the present invention can be a badge that contains compound 4 that may be worn by patients so their total ozone exposure can be continuously measured through the day. A proof-of-principle experiment was conducted with compound 4 and compound 1 as a comparative. A solution of compound 4 (500 nmol) in dimethylsulfoxide (DMSO) was absorbed on a piece of adsorbent paper and allowed to dry. The paper strips were stored in an office room that had two photocopiers and two laser printers. After eight hours, the paper strips were removed and placed in a vial that contained oH 7 buffer to elute the dyes. […] The deviation in these values is presumably because of photobleaching and the lack of specificity of compound 1 towards various ROS, including singlet oxygen.
Ozone detection in indoor air. FIG. 10 are photographic illustrations of results of Ozone detection tests in indoor air using the present invention. The top photograph is a Kimwipe® before placing into photocopy room for 8 hours. The bottom photographs are a Kimwipe® in buffer for absorbance and fluorescence measurement, wherein the left photograph is an indigo carmine taken in room light), and the right photograph is compound 4 taken under long-range UV lamp. One adsorbent paper (Kimwipe®) was cut into two 11×9 cm pieces. Solution A (50 μL, 500 nmol of compound 4) was added to one portion of the Kimwipe® and allowed to dry (FIG. 10, top right). Solution B (50 μL, 500 nmol of indigo carmine) was added to the other portion of the Kimwipe® and allowed to dry (FIG. 10, top left). After overnight drying in a laboratory drawer, the paper strips were moved to a poorly ventilated photocopy room (2 photocopiers and 2 laser printers) for 8 hours. The controls remained in the laboratory drawer. After 8 hours, the samples were placed into a scintillation vial, and the dyes were eluted with pH 7 buffer (6.0 mL) (˜5 min) before fluorescence and absorbance measurement. […] FIGS. 3C-D error bars were determined from the calculated mean and standard deviation (Prism 5.0a, GraphPad Software, Inc.).

In data set [3] the test system is Human bronchial epithelial cells (BEAS-2B). As to the kind of experiment: Live-cell imaging of human bronchial epithelial cells. It counts as cell-based. The following applies: human bronchial epithelial cells. Here is the method: Human bronchial epithelial cells (BEAS-2B) (American Type Culture Collectin) were grown in LHC-9 medium (Invitrogen) on glass-bottomed Petri dishes (MatTek) precoated with 0.01 mg ml^−1 of human fibronectin (Invitrogen), 0.029 mg ml^−1 Vitrogen 100 (Cohesion) and 0.01 mg ml^−1 bovine serum albumin (Invitrogen) in LHC-9 medium. Immediately prior to imaging, cells were rinsed with Hank's balanced salt solution, which contained calcium and magnesium, and placed inside a temperature-controlled, airtight environmental chamber and maintained at 37° C. and 5% CO2. Images were obtained using a Nikon TE2000E-PFS (Perfect focus system) microscope equipped with a […] oil-immersion objective (Nikon, CFI PlanFluor, NA 1.3) and a fluorescien isothiocyanate longpass filter set (Chroma), a Q-Imaging SRV CCD camera (Q-imaging) and MetaMorph software (Molecular Devices). The motorized XYZ stage used was made by ASA (Eugege). Baseline images were collected before the addition of compound 8 and time-lapsed images obtained at 30 second intervals after the addition of compound 8 (250 nM). Once stage baseline had been achieved, multiple washes were carried out and the media replaced. The cells were then exposed to ozone (˜2.1 ppm) and monitored every 30 seconds for 15 minutes. Ozone was generated from medical grade oxygen (Valley Gas) via a model V1-0 ultraviolet ozonator (OREC) and analyzed with a Dasibi (Glendale) direct-reading instrument. Ozone concentrations were maintained by adjusting both the intensity of the ultraviolet light and the flow rate of oxygen. For each experiment, images were collected from six stages, with a minimum of five cells per position (a minimum of 30 cells per […]).
In another embodiment of the invention, human bronchial epitelial cells were incubated with compound 4 to determine ozone's role in cell biology. […] Based on studies why compound 4 and structurally related compounds are not fluorescent, it is believed that the hydroxymethyl group 4 may have been oxidized to give a more electron-withdrawing group, possible a carboxyl or aldehyde group, and so emit a strong fluorescence signal. To circumvent such an oxidation event, compound 8 was prepared specific for ozone. […] Once a steady baseline signal had been established and maintained for five minutes, ozone gas was generated within the airtight environmental chamber that housed the cell-culture dishes, and fluorescent signals were monitored using live-cell microscopy for approximately 15 minutes.
FIGS. 16A-H are photographs of live-cell imaging of human bronchial epithelial cells in the presence of ozone using compound 8. The left-hand panels (FIGS. A-E) are pseudocolour images that indicate the changes in emission intensity over time, and the right-hand panels show differential interference contrast images of the bronchial epithelial cells. FIG. 16A is before the addition of compound 8 (0 seconds). FIG. 16B illustrates the cell at 107 seconds that is a steady state intensity reached with compound 8 at 250 nM. FIG. 16C illustrates the cell at 326 seconds when ozone flow is started. FIG. 16D illustrates the cell at 536 seconds with the emission intensity increasing. FIG. 16E illustrates the cell at 675 seconds when emission maximum is reached. FIG. 16F illustrates the cell at 820 seconds when the cell starts to die. FIG. 16G illustrates the cell at 969 seconds where the cell emission continues to fall. FIG. 16H illustrates the cell at 1148 seconds when the ozone flow is stopped.

Each structure is given as a SMILES string.

As for `C=CCCOc1cc2oc3cc(=O)c(Cl)cc-3c(-c3ccccc3CO)c2cc1Cl` [compound 4], the “fluorescent intensity at 523 nm, Sample A (no ROS)” value in data set [1] (12.5 μM sensor, 5:95 MeOH/pH 7 buffer, no ozone (background)) is 0.35 a. u.×10^5. For the same compound, the “fluorescent intensity at 523 nm, Sample B (ozone)” value in data set [1] (12.5 μM sensor, 5:95 MeOH/pH 7 buffer, ozone at 24° C. then 1 hour at 37° C.) is 28 a. u.×10^5. Besides, the “signal-to-background (S/B)” value in data set [1] (5:95 MeOH/pH 7 buffer, ozone at 24° C. then 1 hour at 37° C.) was determined as 80; in data set [1] (mixture of pH 7 buffer and RPMI-1640 cell culture media (3:1)) it was 104. Further, the “compound 7 generated on paper strip” value in data set [2] was determined as 0.95 nmol. For the same compound, in data set [3], the cell permeability entry was “cell permeable”. In data set [3] (no external ozone), the “fluorescence inside the cells in the absence of external ozone” value was “converted to a fluorescent compound inside the cells”.
